According to ChEMBL document CHEMBL1687691, “From taxuspine x to structurally simplified taxanes with remarkable p-glycoprotein inhibitory activity” (ACS Med Chem Lett, 2010):

Tests used:
[1] = molecular target: T1, ATP-dependent translocase ABCB1 (Homo sapiens, UniProt P08183); experiment: Inhibition of human MDR1 expressed in mouse L5178 cells assessed as increase in intracellular accumulation of rhodamine 123 by FACSCalibur flow cytometry; assay type: cell-based
[2] = molecular target: T1, ATP-dependent translocase ABCB1; experiment: Inhibition of human MDR1 expressed in mouse L5178 cells assessed as increase in intracellular accumulation of rhodamine 123 AT 0.1 mM by FACSCalibur flow cytometry; assay type: cell-based; settings: l5178, 100 µM

T1 sequence (P08183 whole entry): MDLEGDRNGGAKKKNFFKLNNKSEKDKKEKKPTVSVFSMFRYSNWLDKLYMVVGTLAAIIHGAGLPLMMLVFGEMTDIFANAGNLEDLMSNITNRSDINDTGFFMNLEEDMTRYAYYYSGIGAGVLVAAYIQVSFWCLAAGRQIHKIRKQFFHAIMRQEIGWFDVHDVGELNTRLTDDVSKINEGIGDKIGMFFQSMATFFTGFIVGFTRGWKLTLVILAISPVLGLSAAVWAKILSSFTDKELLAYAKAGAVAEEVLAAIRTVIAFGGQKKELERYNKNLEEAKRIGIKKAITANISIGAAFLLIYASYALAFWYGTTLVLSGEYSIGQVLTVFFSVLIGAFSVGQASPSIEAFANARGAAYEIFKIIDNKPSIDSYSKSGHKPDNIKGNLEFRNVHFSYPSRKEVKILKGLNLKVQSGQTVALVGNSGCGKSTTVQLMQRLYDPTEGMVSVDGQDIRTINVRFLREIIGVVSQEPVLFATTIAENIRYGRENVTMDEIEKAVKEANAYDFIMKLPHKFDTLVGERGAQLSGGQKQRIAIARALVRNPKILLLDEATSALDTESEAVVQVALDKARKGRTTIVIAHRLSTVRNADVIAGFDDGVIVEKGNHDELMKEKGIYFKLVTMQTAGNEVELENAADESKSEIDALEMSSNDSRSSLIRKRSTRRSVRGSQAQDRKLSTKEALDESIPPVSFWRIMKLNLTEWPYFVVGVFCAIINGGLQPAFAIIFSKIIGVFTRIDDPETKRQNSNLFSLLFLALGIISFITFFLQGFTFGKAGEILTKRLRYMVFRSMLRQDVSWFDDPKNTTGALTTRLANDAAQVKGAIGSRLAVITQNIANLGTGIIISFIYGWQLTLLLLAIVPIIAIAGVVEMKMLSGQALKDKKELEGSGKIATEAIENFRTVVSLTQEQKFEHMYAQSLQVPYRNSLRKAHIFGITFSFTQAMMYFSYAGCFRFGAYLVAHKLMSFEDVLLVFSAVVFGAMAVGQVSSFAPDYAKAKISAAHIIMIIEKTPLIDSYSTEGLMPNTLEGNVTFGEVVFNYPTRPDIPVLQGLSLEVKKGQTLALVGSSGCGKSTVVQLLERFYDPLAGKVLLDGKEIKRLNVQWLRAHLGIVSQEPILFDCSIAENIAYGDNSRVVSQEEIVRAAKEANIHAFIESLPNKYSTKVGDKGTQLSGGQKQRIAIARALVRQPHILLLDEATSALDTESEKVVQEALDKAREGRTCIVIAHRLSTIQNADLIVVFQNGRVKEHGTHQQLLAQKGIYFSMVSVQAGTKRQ

SMILES | IC50 [1] [µM] | Alpha max [2]
COCCOCO[C@@H]1/C=C\COC(=O)/C=C/[C@@H](OC)[C@@H]2C[C@@H](OC(=O)c3ccccc3)C(C)=C1C2(C)C | 7.2 | 1
COCCOCO[C@@H]1/C=C\C(OC(C)=O)C(OC(C)=O)/C=C/[C@@H](OC)[C@@H]2CCC(C)=C1C2(C)C (stereo not given in full) | 24 | 1
COCCOCO[C@@H]1/C=C\COC(=O)/C=C/[C@@H](OC)[C@@H]2CCC(C)=C1C2(C)C | – | 0.37
